Reference: patent US12479849B2, “EGFR inhibitors for the treatment of cancer” (Hoffmann-La Roche Inc., priority 2019, dated 2025)

What follows are compounds tested against T1, EGFR TMLRCS (Homo sapiens, UniProt P00533, C797S/L858R/T790M) (assay: HTRF Phospho EGFR TMLRCS Assay (Cellular)). Conditions: BaF3-TMLRCS cell line, 4 hours incubation, Phospho-EGFR HTRF readout.
T1 construct: host or cells: BaF3-TMLRCS (Ba/F3 cells, kept under puromycin selection)
T1 sequence (P00533 25-1210 T790M/C797S/L858R): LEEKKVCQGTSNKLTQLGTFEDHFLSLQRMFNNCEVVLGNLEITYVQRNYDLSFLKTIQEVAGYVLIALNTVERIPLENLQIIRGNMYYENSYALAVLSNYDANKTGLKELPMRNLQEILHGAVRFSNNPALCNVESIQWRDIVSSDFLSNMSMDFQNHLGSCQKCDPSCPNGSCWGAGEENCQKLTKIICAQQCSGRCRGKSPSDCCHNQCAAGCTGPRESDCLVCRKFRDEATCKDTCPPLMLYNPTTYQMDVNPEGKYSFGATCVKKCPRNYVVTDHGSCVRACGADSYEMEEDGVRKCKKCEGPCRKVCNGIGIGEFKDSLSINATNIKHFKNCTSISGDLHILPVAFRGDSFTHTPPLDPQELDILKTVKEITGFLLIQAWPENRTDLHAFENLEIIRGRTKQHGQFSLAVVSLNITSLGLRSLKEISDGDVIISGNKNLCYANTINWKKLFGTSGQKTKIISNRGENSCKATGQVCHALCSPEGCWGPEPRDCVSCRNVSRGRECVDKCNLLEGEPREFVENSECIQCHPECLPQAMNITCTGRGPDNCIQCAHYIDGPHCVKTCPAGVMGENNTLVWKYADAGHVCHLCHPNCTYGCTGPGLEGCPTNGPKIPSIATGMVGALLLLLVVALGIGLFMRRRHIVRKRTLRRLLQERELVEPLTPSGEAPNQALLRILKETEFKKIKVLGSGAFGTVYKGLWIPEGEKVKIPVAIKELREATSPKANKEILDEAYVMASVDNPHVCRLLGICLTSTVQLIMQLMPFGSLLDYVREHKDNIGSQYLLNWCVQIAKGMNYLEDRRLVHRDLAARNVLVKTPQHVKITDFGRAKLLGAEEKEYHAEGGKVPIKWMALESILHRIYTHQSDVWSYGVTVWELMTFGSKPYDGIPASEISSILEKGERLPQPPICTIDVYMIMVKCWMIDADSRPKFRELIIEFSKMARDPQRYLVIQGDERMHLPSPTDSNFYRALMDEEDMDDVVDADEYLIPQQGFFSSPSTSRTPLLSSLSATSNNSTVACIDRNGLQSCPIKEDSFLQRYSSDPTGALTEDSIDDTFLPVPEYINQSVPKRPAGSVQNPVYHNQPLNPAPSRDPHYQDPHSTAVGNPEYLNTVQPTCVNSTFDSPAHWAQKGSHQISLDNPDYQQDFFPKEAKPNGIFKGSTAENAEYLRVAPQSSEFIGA
Format: cell-based
Summary of the method: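 BaF3 cells expressing EGFR L858R/T790M/C797S, 20000/well, treated with compound in dose response for 4 h at 37 °C, 5% CO2. After lysis, phospho-EGFR detected by HTRF with cryptate and d2 antibodies over 4 h at room temperature. Signal taken as 665/616 nm ratio ×10000, normalized.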
`CCN1C[C@@H]2CN(c3ccc(-c4cc(Cl)c5cn(C(C(=O)Nc6nccs6)c6ncn7c6C[C@@H](F)C7)nc5c4Cl)cc3)C[C@@H]2C1` (stereo partly drawn) [Example 81, 2-(4,7-Dichloro-6-(4-((3aR,6aS)-5-ethylhexahydropyrrolo[3,4-c]pyrrol-2(1H)-yl)phenyl)-2H-indazol-2-yl)-2-((R)-6-fluoro-6,7-dihydro-5H-pyrrolo[1,2-c]imidazol-1-yl)-N-(thiazol-2-yl)acetamide] gave an IC50 of 9 nM. `O=C(Nc1nccs1)C(c1ncn2c1C[C@@H](F)C2)n1cc2c(Cl)cc(-c3ccc(C4CCN(C5CC5)CC4)cc3)c(Cl)c2n1` (stereo partly drawn) [Example 28, 2-(4,7-Dichloro-6-(4-(1-cyclopropylpiperidin-4-yl)phenyl)-2H-indazol-2-yl)-2-((R)-6-fluoro-6,7-dihydro-5H-pyrrolo[1,2-c]imidazol-1-yl)-N-(thiazol-2-yl)acetamide] was tested, and the IC50 was 17 nM. For `CCN1CC[C@@H](c2ccc(-c3cc(C)c4cn(C(C(=O)Nc5nccs5)c5ncn6c5CCC6)nc4c3Cl)cc2)[C@H](F)C1` (single isomer, unassigned) [Example 127], the IC50 was 9 nM. `CCc1c(-c2ccc(N3CCOCC3)cc2)cc(Cl)c2cn(C(C(=O)Nc3nccs3)c3ncn4c3C[C@@H](F)C4)nc12` (stereo partly drawn) [Example 125, 2-(4-Chloro-7-ethyl-6-(4-morpholinophenyl)-2H-indazol-2-yl)-2-((R)-6-fluoro-6,7-dihydro-5H-pyrrolo[1,2-c]imidazol-1-yl)-N-(thiazol-2-yl)acetamide] was tested, and the IC50 was 11 nM. `O=C(Nc1nccs1)C(c1ncn2c1C[C@@H](F)C2)n1cc2c(Cl)cc(-c3ccc(CN4CCC5(CC4)CC(O)C5)cc3)c(Cl)c2n1` (mixture of isomers) [Example 91, rac-2-(4,7-Dichloro-6-(4-((2-hydroxy-7-azaspiro[3.5]nonan-7-yl)methyl)phenyl)-2H-indazol-2-yl)-2-((R)-6-fluoro-6,7-dihydro-5H-pyrrolo[1,2-c]imidazol-1-yl)-N-(thiazol-2-yl)acetamide] showed an IC50 of 8 nM. `CC1(O)CCN(Cc2ccc(-c3cc(Cl)c4cn(C(C(=O)Nc5nccs5)c5ncn6c5C[C@@H](F)C6)nc4c3Cl)cc2)CC1` (mixture of isomers) [Example 97, rac-2-(4,7-Dichloro-6-(4-((4-hydroxy-4-methylpiperidin-1-yl)methyl)phenyl)-2H-indazol-2-yl)-2-((R)-6-fluoro-6,7-dihydro-5H-pyrrolo[1,2-c]imidazol-1-yl)-N-(thiazol-2-yl)acetamide] gave an IC50 of 5 nM. `O=C(Nc1nccs1)C(c1ncn2c1C[C@@H](F)C2)n1cc2c(Cl)cc(-c3cnc(N4CCOCC4)nc3)c(Cl)c2n1` (stereo partly drawn) [Example 27, 2-(4,7-Dichloro-6-(2-morpholinopyrimidin-5-yl)-2H-indazol-2-yl)-2-((R)-6-fluoro-6,7-dihydro-5H-pyrrolo[1,2-c]imidazol-1-yl)-N-(thiazol-2-yl)acetamide] gave an IC50 of 5 nM. Compound `CCN(C)CCc1ccc(-c2cc(C)c3cn(C(C(=O)Nc4nccs4)c4ncn5c4C[C@@H](F)C5)nc3c2C)cc1` (stereo partly shown) [Example 123] has an IC50 of 15 nM. `O=C(Nc1nccs1)C(c1ncn2c1C[C@@H](F)C2)n1cc2c(Cl)cc(-c3ccc(OCCN4CCCC4)cc3)c(Cl)c2n1` (stereo partly drawn) [Example 42, 2-(4,7-Dichloro-6-(4-(2-(pyrrolidin-1-yl)ethoxy)phenyl)-2H-indazol-2-yl)-2-((R)-6-fluoro-6,7-dihydro-5H-pyrrolo[1,2-c]imidazol-1-yl)-N-(thiazol-2-yl)acetamide] was tested, and the IC50 was 12 nM. Compound `O=C(Nc1nccs1)C(c1ncn2c1C[C@@H](F)C2)n1cc2c(Cl)cc(-c3ccc(OCCN4CCC(O)CC4)cc3)c(Cl)c2n1` (mixture of isomers) [Example 77, rac-2-(4,7-Dichloro-6-(4-(2-(4-hydroxypiperidin-1-yl)ethoxy)phenyl)-2H-indazol-2-yl)-2-((R)-6-fluoro-6,7-dihydro-5H-pyrrolo[1,2-c]imidazol-1-yl)-N-(thiazol-2-yl)acetamide] has an IC50 of 1 nM.
